Assay results from the supplement of paper PMC3974653.
Structures can show the parent of a compound that is named as a salt.

Each compound was assayed on MTT (mouse pheochromocytoma) (assay: IC50 of cell viability (ATP content)). Conditions: (24 or 48 h).
Procedure, shortened: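 Library compounds in DMSO (23 nl by pintool, 8 concentrations, final 0.5 nM to 46 µM) were applied for 24 or 48 hrs to MTT mouse pheochromocytoma cells that had been cultured overnight at 37°C, 5% CO2 in white 1536-well plates. Cell viability was measured by CellTiter-Glo ATP luminescence, read after 15 minutes, with positive-control wells set at 100% and DMSO wells at 0%. A four-parameter logistic fit of the normalised signals yielded the IC50.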
`COc1ccccc1OC[C@H](O)COC(N)=O` [Methocarbamol] was tested, and the “IC50 of cell viability” value was greater than 46 µM. `CN(C)CCOc1ccccc1Cc1ccccc1` [PHENYLTOLOXAMINE CITRATE] was tested, and the “IC50 of cell viability” value was greater than 46 µM. `Cc1ccc(S(=O)(=O)NC(=O)NC2CCCCCCC2)cc1` [GLYOCTAMIDUM] was tested, and the “IC50 of cell viability” value was greater than 46 µM. `C[C@H](/C=C/[C@H](C)C(C)(C)O)[C@H]1CC[C@H]2/C(=C/C=C3C[C@@H](O)C[C@H](O)C3)CCC[C@]12C` [Paricalcitol] was tested, and the “IC50 of cell viability” value was greater than 46 µM. With `CN1CCO[C@H](c2ccccc2)c2ccccc2C1` [Nefopam hydrochloride] the “IC50 of cell viability” value was greater than 46 µM. In the case of `CCOC(=O)c1ccc(C#Cc2ccc3c(c2)C(C)(C)CCS3)nc1` [TAZAROTENE], the “IC50 of cell viability” value is reported as greater than 46 µM. For `CC(C)NCC(O)COc1ccc(CCOCC2CC2)cc1` (stereo not given) [BETAXOLOL], the “IC50 of cell viability” value was greater than 46 µM. In the case of `C#C[C@]1(OC(C)=O)CC[C@H]2[C@@H]3CCC4=C/C(=N/O)CC[C@@H]4[C@H]3CC[C@@]21CC` [NORGESTIMATE], the “IC50 of cell viability” value is reported as greater than 46 µM. In the case of `CC(C)(C)NC(=O)[C@@H]1C[C@@H]2CCCC[C@@H]2CN1C[C@@H](O)[C@H](Cc1ccccc1)NC(=O)[C@H](CC(N)=O)NC(=O)c1ccc2ccccc2n1` [Saquinavir Mesylate], the “IC50 of cell viability” value is reported as greater than 46 µM. With `COC1=C(C=CC=C1)N2CCN(CCCN\C3=C\C(=O)N(C)C(=O)N3C)CC2` [URAPIDIL] the “IC50 of cell viability” value was greater than 46 µM. For `N=C(N)n1cccn1` [PRAXADINUM], the “IC50 of cell viability” value was greater than 46 µM. For `C[N+]1(C)[C@@H]2CC[C@@H]1CC(OC(=O)[C@@H](CO)c1ccccc1)C2.O=[N+]([O-])[O-]` (stereo not given in full) [Methylatropine nitrate], the “IC50 of cell viability” value was greater than 46 µM. `CN(C)CC[N]1N=NN=C1SC\C2=C(\[N@]3[C@@H](SC2)[C@H](NC(=O)CC4=CSC(=N4)N)C3=O)C(O)=O` [Cefotiam hydrochloride] was tested, and the “IC50 of cell viability” value was greater than 46 µM. With `Br.CN1[C@H]2C[C@H](OC(=O)[C@H](CO)c3ccccc3)C[C@H]1[C@H]1O[C@H]12.O.O.O` [Scopolamine hydrobromide trihydrate] the “IC50 of cell viability” value was greater than 46 µM. In the case of `Cc1ccc(C(=O)c2ccc(CC(=O)[O-])n2C)cc1.O.O.[Na+]` [Tolmetin sodium salt dihydrate], the “IC50 of cell viability” value is reported as greater than 46 µM. In the case of `O=C(O)CCCO`, the “IC50 of cell viability” value is reported as greater than 46 µM. For `Cc1ncc(CO)c(CO)c1O` [Pyridoxine], the “IC50 of cell viability” value was greater than 46 µM. In the case of `CC(C)(C)NCC(O)COc1ccc(NC(=O)NC2CCCCC2)cc1` (stereo not given) [TALINOLOLUM], the “IC50 of cell viability” value is reported as greater than 46 µM. `CC(=O)Oc1ccc(C)cc1` [CRESYL ACETATE] was tested, and the “IC50 of cell viability” value was greater than 46 µM. With `O=C(Nc1ccc(Oc2ccc(Cl)cc2)c(Cl)c1)c1cc(I)cc(I)c1O` [Rafoxanide] the “IC50 of cell viability” value was greater than 46 µM. For `COc1cc(/C=C2\CCC/C(=C\c3ccc(O)c(OC)c3)C2=O)ccc1O` [Ciclovalona], the “IC50 of cell viability” value was greater than 46 µM. For `Nc1ccc(O)cc1` [p-Aminophenol], the “IC50 of cell viability” value was greater than 46 µM. For `CC1=NN=C2C\N=C(C3=CC=CC=C3Cl)/C4=C(SC(=C4)Br)[N]12` [Brotizolam], the “IC50 of cell viability” value was greater than 46 µM. With `O=C(CCCN1CCC(O)(c2ccc(Cl)cc2)CC1)c1ccc(F)cc1` [HALOPERIDOL] the “IC50 of cell viability” value was greater than 46 µM. In the case of `Fc1ccc(C(c2ccc(F)cc2)N2CCN(C/C=C/c3ccccc3)CC2)cc1` [FLUNARIZINE], the “IC50 of cell viability” value is reported as greater than 46 µM. For `Oc1cc(Cl)c(Cl)cc1Cl` [2,4,5-Trichlorophenol], the “IC50 of cell viability” value was greater than 46 µM. With `CC[C@](C)(CN(C)C)OC(=O)c1ccccc1` [Amyleine hydrochloride] the “IC50 of cell viability” value was greater than 46 µM. `CC1=CC=CC(=C1N\C2=N\CCCS2)C` [XYLAZINE] was tested, and the “IC50 of cell viability” value was greater than 46 µM. With `CN1C(C)(C)CCCC1(C)C.O=C(O)C(O)C(O)C(=O)O` [PEMPIDINE TARTRATE] the “IC50 of cell viability” value was greater than 46 µM. For `N[C@@H](CO)C(=O)NNCc1ccc(O)c(O)c1O` [Benserazide hydrochloride], the “IC50 of cell viability” value was greater than 46 µM. For `CCCC(=O)Nc1ncnc2c1ncn2C1OC2COP(=O)(O)OC2C1OC(=O)CCC` (stereo not given) [BUCLADESINE], the “IC50 of cell viability” value was greater than 46 µM. In the case of `[O-][n+]1cccc(CO)c1` [Mepiroxol], the “IC50 of cell viability” value is reported as greater than 46 µM. In the case of `[H][C@]12C[C@@]3([H])C4=CCO[C@@H]5CC(=O)N6C([C@@]35[H])[C@]1(CC[N@@]2C4)C7=C6C=CC=C7` (stereo not given in full) [STRYCHNINE], the “IC50 of cell viability” value is reported as greater than 46 µM. With `COC1=C(OC)C(=O)C(C/C=C(\C)CC/C=C(\C)CC/C=C(\C)CC/C=C(\C)CC/C=C(\C)CC/C=C(\C)CC/C=C(\C)CC/C=C(\C)CC/C=C(\C)CCC=C(C)C)=C(C)C1=O` [Ubidecarenone] the “IC50 of cell viability” value was greater than 46 µM. For `Cc1ccc2nc(N)nc(O)c2c1Sc1ccncc1` [NOLATREXED], the “IC50 of cell viability” value was greater than 46 µM.
